# According to patent US20260022142A1, “MACROCYCLIC IMMUNOMODULATORS” (Bristol-Myers Squibb Company, priority 2022, published 2026):
# Bridge positions count the residues as written; N and C are the ends. Square brackets hold non-standard residues; d marks the D form. Peptide text beside a SMILES is read from it. * marks the point of attachment. ξ: configuration not given here. Bip = N[C@@H](Cc1ccc(-c2ccccc2)cc1)C(=O)O; Phe(3-Me) = Cc1cccc(C[C@H](N)C(=O)O)c1; Cha = N[C@@H](CC1CCCCC1)C(=O)O; NMeN = CN[C@@H](CC(N)=O)C(=O)O; Thr(3ξ) = CC(O)[C@H](N)C(=O)O; Carboxymethyl = O=C(O)C*; Orn = NCCC[C@H](N)C(=O)O; Aun = NCCCCCCCCCCC(=O)O; Dab = NCC[C@H](N)C(=O)O; AEEA = NCCOCCOCC(=O)O
# Target: T1, PD-1/PD-L1 interaction (PE-labeled human PD-L1-Ig binding to Jurkat cell line over-expressing human PD-1) (Homo sapiens, UniProt Q15116)
# T1 construct: expressed in transfected cells; host or cells: Jurkat
# T1 sequence (Q15116 25-288): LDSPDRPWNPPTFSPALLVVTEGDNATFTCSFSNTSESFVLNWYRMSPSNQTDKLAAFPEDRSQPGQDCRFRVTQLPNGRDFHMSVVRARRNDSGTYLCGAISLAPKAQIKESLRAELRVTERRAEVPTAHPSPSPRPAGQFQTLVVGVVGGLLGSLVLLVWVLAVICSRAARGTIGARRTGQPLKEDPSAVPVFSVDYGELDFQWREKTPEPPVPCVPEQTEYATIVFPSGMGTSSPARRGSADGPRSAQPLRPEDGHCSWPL
# Assay: Jurkat-PD-1 Cell Binding High-Content Screening Assay (CBA)
# Format: cell-based
# Conditions: Jurkat cell line over-expressing human PD-1; PE-labeled PD-L1-Ig 20 nM final; read-out: Jurkat hPD1-PDL1 IC50
# How it was run: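 Jurkat cells stably over-expressing human PD-1 were seeded in DMEM with 10% fetal calf serum and pre-incubated with compound for 2 h at 37° C. PE-labeled human PD-L1-Ig was then added at 20 nM final for 1 hour, after which cells were fixed with paraformaldehyde, Hoechst-stained and imaged by high-content microscopy.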
row,Structure (SMILES),IC50
1,CC(=O)NCCCC[C@@H]1NC(=O)[C@H](Cc2ccc(-c3ccccc3)cc2)NC(=O)[C@H](C(C)C)NC(=O)[C@H](Cc2cccc(C)c2)NC(=O)[C@H](CC(=O)O)NC(=O)[C@H](Cc2ccc(OCC(=O)O)cc2)NC(=O)[C@H](C(C)O)NC(=O)CSC[C@@H](C(=O)N[C@H](CC(N)=O)C(=O)NCCCCCCCCCCC(=O)O)NC(=O)[C@H](CCC(N)=O)NC(=O)[C@H](C(C)C)NC(=O)[C@H](CC2CCCCC2)NC(=O)[C@H](CCN)NC(=O)[C@@H](CC(C)C)NC(=O)[C@H](CCCN)NC1=O (stereo partly drawn) [Compound 3437] ({CH2CO}-[Thr(3ξ)]Y(Carboxymethyl)D[Phe(3-Me)]V[Bip]K(Ac)[Orn][dL][Dab][Cha]VQC[dN][Aun]-OH; thioether N-14),11.2 nM
2,CC(C)C[C@H]1NC(=O)[C@H](CCCN)NC(=O)[C@H](C(C)C)NC(=O)[C@H](Cc2ccc(-c3ccccc3)cc2)NC(=O)[C@H](C(C)C)NC(=O)[C@H](Cc2c[nH]c3ccccc23)NC(=O)[C@H](CC(=O)O)NC(=O)[C@H](Cc2ccc(OCC(=O)O)cc2)NC(=O)[C@H](CCCNC(=N)N)NC(=O)CSC[C@@H](C(=O)N(C)[C@@H](CC(N)=O)C(=O)NCCCCCCCCCCC(=O)O)NC(=O)[C@H](CO)NC(=O)[C@H](C(C)C)NC(=O)[C@H](CC2CCCCC2)NC(=O)[C@H](CCN)NC1=O [Compound 3438] ({CH2CO}-RY(Carboxymethyl)DWV[Bip]V[Orn][dL][Dab][Cha]VSC[NMeN][Aun]-OH; thioether N-14),66.1 nM
3,Cc1cccc(C[C@@H]2NC(=O)[C@H](CC(=O)O)NC(=O)[C@H](Cc3ccc(OCC(=O)O)cc3)NC(=O)[C@H](C(C)O)NC(=O)CSC[C@@H](C(=O)N[C@@H](CCN)C(=O)NCCCCCCCCCCC(=O)O)NC(=O)[C@H](C(C)O)NC(=O)[C@H](C(C)C)NC(=O)[C@H](CC3CCCCC3)NC(=O)[C@H](CCN)NC(=O)[C@@H](CC(C)C)NC(=O)[C@H](CCCN)NC(=O)[C@H](CCC(=O)O)NC(=O)[C@H](Cc3ccc(-c4ccccc4)cc3)NC(=O)[C@H](C(C)C)NC2=O)c1 (stereo partly drawn) [Compound 3441] ({CH2CO}-[Thr(3ξ)]Y(Carboxymethyl)D[Phe(3-Me)]V[Bip]E[Orn][dL][Dab][Cha]V[Thr(3ξ)]C[Dab][Aun]-OH; thioether N-14),39.7 nM
4,Cc1cccc(C[C@@H]2NC(=O)[C@H](CC(=O)O)NC(=O)[C@H](Cc3ccc(OCC(=O)O)cc3)NC(=O)[C@H](C(C)O)NC(=O)CSC[C@@H](C(=O)NCCOCCOCC(=O)NCCCCCCCCCCC(=O)O)NC(=O)[C@H](C(C)O)NC(=O)[C@H](C(C)C)NC(=O)[C@H](CC3CCCCC3)NC(=O)[C@H](CCN)NC(=O)[C@@H](CC(C)C)NC(=O)[C@H](CCN)NC(=O)[C@H](C(C)C)NC(=O)[C@H](Cc3ccc(-c4ccccc4)cc3)NC(=O)[C@H](C(C)C)NC2=O)c1 (stereo partly drawn) [Compound 3442] ({CH2CO}-[Thr(3ξ)]Y(Carboxymethyl)D[Phe(3-Me)]V[Bip]V[Dab][dL][Dab][Cha]V[Thr(3ξ)]C[AEEA][Aun]-OH; thioether N-14),16.4 nM
5,CC(=O)NCCCC[C@@H]1NC(=O)[C@H](C(C)C)NC(=O)[C@H](CC2CCCCC2)NC(=O)[C@H](CCN)NC(=O)[C@@H](CC(C)C)NC(=O)[C@H](CCN)NC(=O)[C@H](C(C)C)NC(=O)[C@H](Cc2ccc(-c3ccccc3)cc2)NC(=O)[C@H](C(C)C)NC(=O)[C@H](Cc2cccc(C)c2)NC(=O)[C@H](CC(=O)O)NC(=O)[C@H](Cc2ccc(OCC(=O)O)cc2)NC(=O)[C@H](C(C)O)NC(=O)CSC[C@@H](C(=O)NCCOCCOCC(=O)NCCCCCCCCCCC(=O)O)NC1=O (stereo partly drawn) [Compound 3443] ({CH2CO}-[Thr(3ξ)]Y(Carboxymethyl)D[Phe(3-Me)]V[Bip]V[Dab][dL][Dab][Cha]VK(Ac)C[AEEA][Aun]-OH; thioether N-14),12 nM
